Measurements taken from patent US20250011368A1, “DLL3 TARGETING PEPTIDES AND CONSTRUCTS THEREOF” (MARIANA ONCOLOGY INC., priority 2023, published 2025).
Numbered stars: 1 amine (or outer) side, 2 acyl side, 3 side chain; on linkers, the order of the positions; unused ones are H or OH. Bridge positions count the residues as written; N and C are the ends. Square brackets hold non-standard residues; d marks the D form. Peptide text beside a SMILES is read from it. * marks the point of attachment. ξ: configuration not given here. X4 = O=C(O)CN1CCN(CC(=O)O)CCN(CC(=O)N[C@H]2CC[C@H](CC(=O)*)CC2)CCN(CC(=O)O)CC1; Ala(piperidin-4-yl) = O=C([C@H](CC1CCN([*:3])CC1)N[*:1])[*:2]; DOTA = O=C(O)CN1CCN(CC(=O)O)CCN(CC(=O)*)CCN(CC(=O)O)CC1; Trp(7-OMe) = COc1cccc2c(C[C@H](N)C(=O)O)c[nH]c12; Trp(7-Me) = Cc1cccc2c(C[C@H](N)C(=O)O)c[nH]c12; 2Nal = N[C@@H](Cc1ccc2ccccc2c1)C(=O)O; tBuAla = CC(C)(C)C[C@H](N)C(=O)O; 3Pal = N[C@@H](Cc1cccnc1)C(=O)O; 4Pal = N[C@@H](Cc1ccncc1)C(=O)O; Chg = N[C@H](C(=O)O)C1CCCCC1; Tle = CC(C)(C)[C@H](N)C(=O)O; CH2 = C([*:1])[*:2]; ξP = O=C(O)C1CCCN1

Each compound was assayed against T1, human DLL3 (Homo sapiens, UniProt Q9NYJ7) (assay: Affinity determination by Surface Plasmon Resonance (SPR)). Conditions: 25° C., biotinylated human DLL3 immobilized on streptavidin sensor chip, 1:1 binding model; read-out: SPR KD.
T1 sequence (Q9NYJ7 27-618): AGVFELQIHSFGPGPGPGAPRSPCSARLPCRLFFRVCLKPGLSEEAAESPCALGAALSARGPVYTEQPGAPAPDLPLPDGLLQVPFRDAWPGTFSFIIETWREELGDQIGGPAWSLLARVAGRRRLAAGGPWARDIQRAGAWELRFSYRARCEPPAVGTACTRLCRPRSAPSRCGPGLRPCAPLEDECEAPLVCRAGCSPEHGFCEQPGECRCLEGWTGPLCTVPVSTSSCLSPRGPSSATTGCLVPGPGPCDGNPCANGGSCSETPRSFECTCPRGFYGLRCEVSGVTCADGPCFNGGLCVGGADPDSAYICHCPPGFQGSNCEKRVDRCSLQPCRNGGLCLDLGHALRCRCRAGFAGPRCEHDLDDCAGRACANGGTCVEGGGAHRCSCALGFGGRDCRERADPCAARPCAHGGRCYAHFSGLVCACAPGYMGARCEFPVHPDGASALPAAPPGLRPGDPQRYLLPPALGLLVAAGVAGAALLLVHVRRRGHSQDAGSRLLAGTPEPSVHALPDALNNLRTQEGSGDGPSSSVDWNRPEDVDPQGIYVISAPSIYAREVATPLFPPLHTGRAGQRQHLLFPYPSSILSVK
Assay type: binding
Summary of the method: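 Biotinylated human DLL3 was captured on a streptavidin chip with a reference surface. Compounds at several concentrations were injected at 100 μL/minute in phosphate buffer (137 mM NaCl, 2.7 mM KCl, 0.05% P20, 2% DMSO). Affinity and kinetics came from 1:1 model fits of the sensorgrams.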

Structure (SMILES) | Kd
CC(=O)N[C@@H](Cc1c[nH]c2ccccc12)C(=O)N[C@H](C(=O)N[C@H](C(=O)N[C@H]1CSSC[C@@H](C(=O)N[C@@H](Cc2c[nH]c3ccccc23)C(=O)N2CCC[C@H]2C(=O)N[C@H](CCCCNC(=O)CN2CCN(CC(=O)O)CCN(CC(=O)O)CCN(CC(=O)O)CC2)C(N)=O)NC(=O)[C@H](CC(=O)O)NC(=O)[C@H](Cc2cnc[nH]2)NC(=O)[C@H](Cc2ccc3ccccc3c2)NC(=O)[C@H](CC(N)=O)NC(=O)[C@H](Cc2cccnc2)NC1=O)C1CCCCC1)[C@@H](C)O [compound 287, Ac-W-T-(Chg)-C(3)-(3Pya)-N-(2Nal)-H-D-C(3)-W-P-[D-Lys(DOTA)]-NH2] (Ac-WT[Chg]C[3Pal]N[2Nal]HDCWP[dK](DOTA)-NH2; disulfide 4-10) | < 1 nM
CC(=O)N[C@@H](Cc1c[nH]c2ccccc12)C(=O)N[C@H](C(=O)N[C@H](C(=O)N[C@H]1CSSC[C@@H](C(=O)N[C@@H](Cc2c[nH]c3ccccc23)C(=O)N2CCC[C@H]2C(=O)N[C@H](CCCCNC(=O)CN2CCN(CC(=O)O)CCN(CC(=O)O)CCN(CC(=O)O)CC2)C(N)=O)NC(=O)[C@H](CC(=O)O)NC(=O)[C@H](Cc2cnc[nH]2)NC(=O)[C@H](Cc2ccc3ccccc3c2)NC(=O)[C@H](CC(N)=O)NC(=O)[C@H](Cc2cccnc2)NC1=O)C(C)(C)C)[C@@H](C)O [compound 288, Ac-W-T-(Tbg)-C(3)-(3Pya)-N-(2Nal)-H-D-C(3)-W-P-[D-Lys(DOTA)]-NH2] (Ac-WT[Tle]C[3Pal]N[2Nal]HDCWP[dK](DOTA)-NH2; disulfide 4-10) | < 1 nM
CC[C@H](C)[C@H](NC(=O)[C@@H](NC(=O)[C@H](Cc1c[nH]c2ccccc12)NC(C)=O)[C@@H](C)O)C(=O)N[C@H]1CSSC[C@@H](C(=O)N[C@@H](Cc2c[nH]c3ccccc23)C(=O)N2CCC[C@H]2C(=O)N[C@H](CCCCNC(=O)CN2CCN(CC(=O)O)CCN(CC(=O)O)CCN(CC(=O)O)CC2)C(N)=O)NC(=O)[C@H](CC(=O)O)NC(=O)[C@H](Cc2cnc[nH]2)NC(=O)[C@H](Cc2c[nH]c3c(OC)cccc23)NC(=O)[C@H](CC(N)=O)NC(=O)[C@H](CC(N)=O)NC1=O [compound 296, Ac-W-T-I-C(3)-N-N-(7-MeO-W)-H-D-C(3)-W-P-[D-Lys(DOTA)]-NH2] (Ac-WTICNN[Trp(7-OMe)]HDCWP[dK](DOTA)-NH2; disulfide 4-10) | < 1 nM
CC[C@H](C)[C@H](NC(=O)[C@@H](NC(=O)[C@H](Cc1c[nH]c2ccccc12)NC(C)=O)[C@@H](C)O)C(=O)N[C@H]1CSSC[C@@H](C(=O)N[C@@H](Cc2c[nH]c3c(C)cccc23)C(=O)N2CCC[C@H]2C(=O)N[C@H](CCCCNC(=O)CN2CCN(CC(=O)O)CCN(CC(=O)O)CCN(CC(=O)O)CC2)C(N)=O)NC(=O)[C@H](CC(=O)O)NC(=O)[C@H](Cc2cnc[nH]2)NC(=O)[C@H](Cc2c[nH]c3ccccc23)NC(=O)[C@H](CC(N)=O)NC(=O)[C@H](CC(N)=O)NC1=O [compound 298, Ac-W-T-I-C(3)-N-N-W-H-D-C(3)-(7-Me-W)-P-[D-Lys(DOTA)]-NH2] (Ac-WTICNNWHDC[Trp(7-Me)]P[dK](DOTA)-NH2; disulfide 4-10) | < 1 nM
CC[C@H](C)[C@H](NC(=O)[C@@H](NC(=O)[C@H](Cc1c[nH]c2ccccc12)NC(C)=O)[C@@H](C)O)C(=O)N[C@H]1CSSC[C@@H](C(=O)N[C@@H](Cc2c[nH]c3c(OC)cccc23)C(=O)N2CCC[C@H]2C(=O)N[C@H](CCCCNC(=O)CN2CCN(CC(=O)O)CCN(CC(=O)O)CCN(CC(=O)O)CC2)C(N)=O)NC(=O)[C@H](CC(=O)O)NC(=O)[C@H](Cc2cnc[nH]2)NC(=O)[C@H](Cc2c[nH]c3ccccc23)NC(=O)[C@H](CC(N)=O)NC(=O)[C@H](CC(N)=O)NC1=O [compound 299, Ac-W-T-I-C(3)-N-N-W-H-D-C(3)-(7-MeO-W)-P-[D-Lys(DOTA)]-NH2] (Ac-WTICNNWHDC[Trp(7-OMe)]P[dK](DOTA)-NH2; disulfide 4-10) | < 1 nM
CC[C@H](C)[C@H](NC(=O)[C@@H](NC(=O)[C@H](Cc1c[nH]c2ccccc12)NC(C)=O)[C@@H](C)O)C(=O)N[C@H]1CSCSC[C@@H](C(=O)N[C@@H](Cc2c[nH]c3ccccc23)C(=O)N2CCCC2C(=O)N[C@@H](CCCCNC(=O)CN2CCN(CC(=O)O)CCN(CC(=O)O)CCN(CC(=O)O)CC2)C(N)=O)NC(=O)[C@H](CC(=O)O)NC(=O)[C@H](Cc2cnc[nH]2)NC(=O)[C@H](Cc2ccc3ccccc3c2)NC(=O)[C@H](CC(N)=O)NC(=O)[C@H](CC(N)=O)NC1=O (stereo partly drawn) [compound 329, Ac-W-T-I-C(1)-N-N-(2Nal)-H-D-C(1)-W-P-[L-Lys(DOTA)]-NH2] (Ac-WTICNN[2Nal]HDCW[ξP]K(DOTA)-NH2; linker 4-10 via CH2) | < 1 nM
CC[C@H](C)[C@H](NC(=O)[C@@H](NC(=O)[C@H](Cc1c[nH]c2c(C)cccc12)NC(C)=O)[C@@H](C)O)C(=O)N[C@H]1CSCSC[C@@H](C(=O)N[C@@H](Cc2c[nH]c3ccccc23)C(=O)N2CCCC2C(=O)N[C@H](CCCCNC(=O)CN2CCN(CC(=O)O)CCN(CC(=O)O)CCN(CC(=O)O)CC2)C(N)=O)NC(=O)[C@H](CC(=O)O)NC(=O)[C@H](Cc2cnc[nH]2)NC(=O)[C@H](Cc2ccc3ccccc3c2)NC(=O)[C@H](CC(N)=O)NC(=O)[C@H](CC(N)=O)NC1=O (stereo partly drawn) [compound 330, Ac-7MeW-T-I-C(1)-N-N-(2Nal)-H-D-C(1)-W-P-[D-Lys(DOTA)]-NH2] (Ac-[Trp(7-Me)]TICNN[2Nal]HDCW[ξP][dK](DOTA)-NH2; linker 4-10 via CH2) | < 1 nM

Continued, values first:

Kd | Structure (SMILES)
< 1 nM | CC(=O)N[C@@H](Cc1c[nH]c2ccccc12)C(=O)N[C@H](C(=O)N[C@H](C(=O)N[C@H]1CSSC[C@@H](C(=O)N[C@@H](Cc2c[nH]c3ccccc23)C(=O)N2CCC[C@H]2C(=O)N[C@H](CCCCNC(=O)C[C@H]2CC[C@H](NC(=O)CN3CCN(CC(=O)O)CCN(CC(=O)O)CCN(CC(=O)O)CC3)CC2)C(N)=O)NC(=O)[C@H](CC(=O)O)NC(=O)[C@H](Cc2c[nH]cn2)NC(=O)[C@H](Cc2ccc3ccccc3c2)NC(=O)[C@H](CC(N)=O)NC(=O)[C@H](CC2CCNCC2)NC1=O)C1CCCCC1)[C@@H](C)O [compound 286, Ac-W-T-(Chg)-C(3)-[3-(4-piperidinyl)-Ala]-N-(2Nal)-H-D-C(3)-W-P-[D-Lys(Chx-DOTA)]-NH2] (Ac-WT[Chg]C[Ala(piperidin-4-yl)]N[2Nal]HDCWP[dK](X4)-NH2; disulfide 4-10)
< 1 nM | CC(=O)N[C@@H](Cc1c[nH]c2ccccc12)C(=O)N[C@H](C(=O)N[C@@H](CC(C)(C)C)C(=O)N[C@H]1CSSC[C@@H](C(=O)N[C@@H](Cc2c[nH]c3ccccc23)C(=O)N2CCC[C@H]2C(=O)N[C@H](CCCCNC(=O)CN2CCN(CC(=O)O)CCN(CC(=O)O)CCN(CC(=O)O)CC2)C(N)=O)NC(=O)[C@H](CC(=O)O)NC(=O)[C@H](Cc2cnc[nH]2)NC(=O)[C@H](Cc2ccc3ccccc3c2)NC(=O)[C@H](CC(N)=O)NC(=O)[C@H](Cc2cccnc2)NC1=O)[C@@H](C)O [compound 289, Ac-W-T-(t-Bu-Ala)-C(3)-(3Pya)-N-(2Nal)-H-D-C(3)-W-P-[D-Lys(DOTA)]-NH2] (Ac-WT[tBuAla]C[3Pal]N[2Nal]HDCWP[dK](DOTA)-NH2; disulfide 4-10)
< 1 nM | CC(=O)N[C@@H](Cc1c[nH]c2ccccc12)C(=O)N[C@H](C(=O)N[C@H](C(=O)N[C@H]1CSSC[C@@H](C(=O)N[C@@H](Cc2c[nH]c3ccccc23)C(=O)N2CCC[C@H]2C(=O)N[C@H](CCCCNC(=O)CN2CCN(CC(=O)O)CCN(CC(=O)O)CCN(CC(=O)O)CC2)C(N)=O)NC(=O)[C@H](CC(=O)O)NC(=O)[C@H](Cc2cnc[nH]2)NC(=O)[C@H](Cc2ccc3ccccc3c2)NC(=O)[C@H](CC(N)=O)NC(=O)[C@H](Cc2ccncc2)NC1=O)C1CCCCC1)[C@@H](C)O [compound 290, Ac-W-T-(Chg)-C(3)-(4Pya)-N-(2Nal)-H-D-C(3)-W-P-[D-Lys(DOTA)]-NH2] (Ac-WT[Chg]C[4Pal]N[2Nal]HDCWP[dK](DOTA)-NH2; disulfide 4-10)
< 1 nM | CC[C@H](C)[C@H](NC(=O)[C@@H](NC(=O)[C@H](Cc1c[nH]c2ccccc12)NC(C)=O)[C@@H](C)O)C(=O)N[C@H]1CSSC[C@@H](C(=O)N[C@@H](Cc2c[nH]c3ccccc23)C(=O)N2CCC[C@H]2C(=O)N[C@H](CCCCNC(=O)CN2CCN(CC(=O)O)CCN(CC(=O)O)CCN(CC(=O)O)CC2)C(N)=O)NC(=O)[C@H](CC(=O)O)NC(=O)[C@H](Cc2cnc[nH]2)NC(=O)[C@H](Cc2c[nH]c3c(C)cccc23)NC(=O)[C@H](CC(N)=O)NC(=O)[C@H](CC(N)=O)NC1=O [compound 295, Ac-W-T-I-C(3)-N-N-(7-Me-W)-H-D-C(3)-W-P-[D-Lys(DOTA)]-NH2] (Ac-WTICNN[Trp(7-Me)]HDCWP[dK](DOTA)-NH2; disulfide 4-10)
< 1 nM | CC[C@H](C)[C@H](NC(=O)[C@@H](NC(=O)[C@H](Cc1c[nH]c2c(OC)cccc12)NC(C)=O)[C@@H](C)O)C(=O)N[C@H]1CSSC[C@@H](C(=O)N[C@@H](Cc2c[nH]c3ccccc23)C(=O)N2CCC[C@H]2C(=O)N[C@H](CCCCNC(=O)CN2CCN(CC(=O)O)CCN(CC(=O)O)CCN(CC(=O)O)CC2)C(N)=O)NC(=O)[C@H](CC(=O)O)NC(=O)[C@H](Cc2cnc[nH]2)NC(=O)[C@H](Cc2ccc3ccccc3c2)NC(=O)[C@H](CC(N)=O)NC(=O)[C@H](CC(N)=O)NC1=O [compound 344, Ac-(7MeO-Trp)-T-I-C(3)-N-N-W-H-D-C(3)-W-P-[D-Lys(DOTA)]-CONH2] (Ac-[Trp(7-OMe)]TICNN[2Nal]HDCWP[dK](DOTA)-NH2; disulfide 4-10)
